Reference: patent publication US10744125B2, “Adenosine A3 receptor modulators” (Palobiofarma, S.L., priority 2017, dated 2020)

Tests used:
adenosine A2B receptor = adenosine A2B receptor (Homo sapiens (Human), UniProt P29275); test: A2B adenosine receptor competition radioligand binding assay; settings: human recombinant source (HEK-293 cells), [3H]DPCPX
Method: A2B Adenosine Receptor Competition Radioligand Binding Assay
The binding assay for adenosine A2B receptor subtype was carried out on human recombinant source (HEK-293 cells) and [^3H]DPCPX as radioligand, according to assay disclosed by Fredholm et al. (International Union of Pharmacology. XXV. Nomenclature and classification of adenosine receptors, Pharmacol Rev. 2001 December; 53(4):527-52).

hA1 receptors = hA1 receptors (Homo sapiens (Human), UniProt P30542); test: Adenosine A1 receptor subtype competition radioligand binding assay; settings: hA1 receptors transfected to CHO cells, [3H]DPCPX
Method: (§1) Human membranes for recombinant adenosine receptors were purchased from Receptor Biology, Inc. (USA).
Adenosine A1 Receptor Subtype Competition Radioligand Binding Assay
Competition assays were carried out by incubation of human recombinant membranes of adenosine receptors (Receptor Biology, Inc.) from hA1 receptors transfected to CHO cells, [^3H] DPCPX as radioligand, buffer (HEPES 20 mM (pH=7.4), 10 mM MgCl2, 100 mM NaCl, 2 U/mL of deaminase adenosine and non-labelled ligand in a total volume of 0.2 mL for 90 min at 25° C. R-PIA was used to determinate non-specific binding. Filter over Schleicher & Schuell GF/52 (pre-soaked 0.5% polyethylenimine) in a Brandel cell harvester. Unbound radioligand was removed with HEPES 30 mM (3×250 μl), NaCl (100 mM) and MgCl2 (10 mM).

human A2A receptors = human A2A receptors (Homo sapiens (Human), UniProt P29274); test: A2A adenosine receptor competition radioligand binding assay; settings: membranes from human A2A receptors transfected to HeLa cells, [3H]-ZM241385
Method: as §1
A2A Adenosine Receptor Competition Radioligand Binding Assay
Competitive assays were carried out by incubation of membranes from human A2A receptors transfected to HeLa cells, [^3H]-ZM241385, buffer (Tris-HCl 50 mM (pH=7.4), 10 mM MgCl2, EDTA 1 mM and 2 units/ml adenosine deaminase), and unlabelled ligand in a total volume of 0.2 ml for 60 min at 25° C. NECA was used to determine nonspecific binding. It was filtered over Schleicher & Schuell GF/52 (presoaked with 0.5% polyethyleneimine) in a Brandel cell harvester. The unbound radioligand was removed with 3×250 μl of 20 mM Tris-HCl 50 mM (pH=7.4), 10 mM MgCl2, EDTA 1 mM.

human A3 receptors = human A3 receptors (Homo sapiens (Human), UniProt P0DMS8); test: A3 adenosine receptor competition radioligand binding assay; settings: membranes from human A3 receptors transfected to CHO cells, [3H]-NECA
Method: as §1
A3 Adenosine Receptor Competition Radioligand Binding Assay
Competitive assays were carried out by incubation of membranes from human A3 receptors transfected to CHO cells, [^3H]-NECA, buffer (20 mM HEPES (pH 7.4), 100 mM NaCl, 10 mM MgCl2, 2 units/ml adenosine deaminase), and unlabelled ligand in a total volume of 0.2 ml for 60 min at 25° C. R-PIA was used to determine nonspecific binding. It was filtered over Schleicher & Schuell GF/52 (presoaked with 0.5% polyethyleneimine) in a Brandel cell harvester. The unbound radioligand was removed with 3×250 μl of 20 mM HEPES (pH 7.4), 100 mM NaCl, 10 mM MgCl2.

[1] = tested on: rheumatoid arthritis (RA) patients; settings: oral administration twice daily for 12 weeks; cited from earlier work
[2] = tested on: experimental autoimmune uveitis; settings: experimental autoimmune uveitis model; cited from earlier work
A3AR receptor = A3AR receptor (Homo sapiens (Human), UniProt P0DMS8); settings: read-out: affinity on the A3AR receptor (IC50); cited from earlier work
Sequence of A3AR receptor (P0DMS8 whole entry): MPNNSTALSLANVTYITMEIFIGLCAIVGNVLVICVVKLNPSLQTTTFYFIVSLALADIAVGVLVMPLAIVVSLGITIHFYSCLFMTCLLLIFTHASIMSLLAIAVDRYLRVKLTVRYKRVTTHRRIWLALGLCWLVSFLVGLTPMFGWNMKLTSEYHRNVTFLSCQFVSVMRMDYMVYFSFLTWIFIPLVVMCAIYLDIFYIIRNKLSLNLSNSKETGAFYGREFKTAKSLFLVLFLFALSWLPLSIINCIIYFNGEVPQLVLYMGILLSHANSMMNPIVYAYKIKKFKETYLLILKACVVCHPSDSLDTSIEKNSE

Sequence of adenosine A2B receptor (P29275 whole entry): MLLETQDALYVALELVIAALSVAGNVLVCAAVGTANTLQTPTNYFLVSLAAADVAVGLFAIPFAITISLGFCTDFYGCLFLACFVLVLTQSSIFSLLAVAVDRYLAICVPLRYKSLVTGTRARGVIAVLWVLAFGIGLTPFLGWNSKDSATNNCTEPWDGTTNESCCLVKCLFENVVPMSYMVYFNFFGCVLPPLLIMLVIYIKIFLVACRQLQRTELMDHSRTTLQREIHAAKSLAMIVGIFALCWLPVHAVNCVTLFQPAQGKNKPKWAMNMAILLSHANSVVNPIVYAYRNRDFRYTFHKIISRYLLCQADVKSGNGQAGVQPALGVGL
Sequence of human A3 receptors (P0DMS8 whole entry): as the sequence (P0DMS8 whole entry) above
Sequence of human A2A receptors (P29274 whole entry): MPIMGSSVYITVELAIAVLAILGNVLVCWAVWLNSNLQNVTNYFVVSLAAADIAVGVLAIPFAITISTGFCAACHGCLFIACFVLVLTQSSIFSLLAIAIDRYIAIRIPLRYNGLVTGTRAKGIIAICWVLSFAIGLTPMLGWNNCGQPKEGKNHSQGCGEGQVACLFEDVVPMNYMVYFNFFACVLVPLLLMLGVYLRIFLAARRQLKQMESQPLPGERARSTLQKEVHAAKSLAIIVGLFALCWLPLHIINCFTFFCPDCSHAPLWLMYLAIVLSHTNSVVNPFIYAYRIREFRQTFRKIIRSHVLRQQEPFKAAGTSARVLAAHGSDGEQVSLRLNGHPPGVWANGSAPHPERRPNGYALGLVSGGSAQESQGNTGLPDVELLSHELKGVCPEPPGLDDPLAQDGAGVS
Sequence of hA1 receptors (P30542 whole entry): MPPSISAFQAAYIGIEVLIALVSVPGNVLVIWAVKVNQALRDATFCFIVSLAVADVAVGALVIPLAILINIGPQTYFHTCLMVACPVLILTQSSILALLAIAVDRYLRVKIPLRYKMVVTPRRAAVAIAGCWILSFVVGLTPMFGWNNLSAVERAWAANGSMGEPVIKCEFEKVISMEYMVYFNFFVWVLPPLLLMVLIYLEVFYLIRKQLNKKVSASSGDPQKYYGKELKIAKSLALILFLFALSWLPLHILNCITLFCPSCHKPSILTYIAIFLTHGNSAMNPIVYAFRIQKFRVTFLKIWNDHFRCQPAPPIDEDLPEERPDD

Structure (SMILES) | Ki (adenosine A2B receptor) [nM] | Ki (hA1 receptors) [nM] | Ki (human A2A receptors) [nM] | Ki (human A3 receptors) [nM] | effect on disease signs and symptoms [1] | safety and tolerability [1] | effect on manifestations of uveitis [2] | IC50 (A3AR receptor) [nM]
N#Cc1sc(NC(=O)c2ccc(N3CCC(C(=O)O)CC3)nc2)nc1-c1ccccc1 [Example 1, 1-(5-(5-cyano-4-phenylthiazol-2-ylcarbamoyl)pyridin-2-yl) piperidine-4-carboxylic Acid] | > 500 | > 500 | > 1000 | 103 |  |  |  | 
CNC(=O)[C@H]1O[C@@H](n2cnc3c(NCc4cccc(I)c4)ncnc32)[C@H](O)[C@@H]1O [IB-MECA, 1-deoxy-1-[6-[((3-iodophenyl)methyl)amino]-9H-purin-9-yl]-N-methyl-β-D-ribofuranuronamide] |  |  |  |  | able to mediate an improvement of disease signs and symptoms | safe, well tolerated | inhibited the clinical and pathological manifestations of uveitis | 
COc1cccc(-c2nc(NC(=O)c3ccc(N4CCC(C(=O)O)CC4)nc3)sc2C#N)c1 [Example 3, 1-(5-((5-cyano-4-(3-methoxyphenyl)thiazol-2-yl)carbamoyl)pyridin-2-yl) piperidine-4-carboxylic Acid] | > 1000 | > 1000 | > 1000 | 65.5 |  |  |  | 
N#Cc1sc(NC(=O)c2ccc(N3CCC(C(=O)O)CC3)nc2)nc1-c1ccccc1F [Example 5, 1-(5-((5-cyano-4-(2-fluorophenyl)thiazol-2-yl)carbamoyl)pyridin-2-yl) piperidine-4-carboxylic Acid] | > 500 | > 500 | > 1000 | 26.3 |  |  |  | 
COc1cc(Nc2ncc(F)c(Nc3ccc4c(n3)N(COP(=O)(O)O)C(=O)C(C)(C)O4)n2)cc(OC)c1OC [fostamatinib] |  |  |  |  |  |  |  | 81
N#Cc1sc(NC(=O)c2ccc(N3CCC(C(=O)O)CC3)nc2)nc1-c1cccc(F)c1 [Example 6, 1-(5-((5-cyano-4-(3-fluorophenyl)thiazol-2-yl)carbamoyl)pyridin-2-yl) piperidine-4-carboxylic Acid] | > 1000 | > 1000 | > 1000 | 50.3 |  |  |  | 
N#Cc1sc(NC(=O)c2ccc(N3CCC(C(=O)O)CC3)nc2)nc1-c1cccs1 [Example 14, 1-(5-(5-cyano-4-(thiophen-2-yl)thiazol-2-ylcarbamoyl)pyridin-2-yl) piperidine-4-carboxylic Acid] | > 1000 | > 500 | > 500 | 29.2 |  |  |  | 
